59 compounds from patent publication US8735391B2, “Synthesis of functionalized octahydro-isoquinolin-1-one-8-carboxamides, octahydro-isoquinolin-1-one-8-carboxylic esters and analogs, and therapeutic methods” (University of Kansas, priority 2008, dated 2014) can be followed below.

As a reminder, the Ki is a dissociation constant, usually derived from enzyme kinetics or from competition with a known ligand.

DOR, sequence (P41143 whole entry): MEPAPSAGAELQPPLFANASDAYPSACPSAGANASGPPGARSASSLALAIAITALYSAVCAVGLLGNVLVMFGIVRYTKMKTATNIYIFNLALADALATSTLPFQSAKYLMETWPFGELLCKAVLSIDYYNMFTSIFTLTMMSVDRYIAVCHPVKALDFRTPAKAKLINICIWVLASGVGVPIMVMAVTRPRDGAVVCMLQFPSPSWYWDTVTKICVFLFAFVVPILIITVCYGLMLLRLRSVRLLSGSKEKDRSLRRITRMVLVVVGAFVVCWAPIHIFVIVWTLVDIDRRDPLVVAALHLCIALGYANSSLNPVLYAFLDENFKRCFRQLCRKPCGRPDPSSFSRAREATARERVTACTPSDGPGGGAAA

In the first test the target is KOR (Homo sapiens, UniProt P41145). Briefly: Opioid secondary binding, KOR (Tables 4, 5, 8, 9).
KOR, sequence (P41145 whole entry): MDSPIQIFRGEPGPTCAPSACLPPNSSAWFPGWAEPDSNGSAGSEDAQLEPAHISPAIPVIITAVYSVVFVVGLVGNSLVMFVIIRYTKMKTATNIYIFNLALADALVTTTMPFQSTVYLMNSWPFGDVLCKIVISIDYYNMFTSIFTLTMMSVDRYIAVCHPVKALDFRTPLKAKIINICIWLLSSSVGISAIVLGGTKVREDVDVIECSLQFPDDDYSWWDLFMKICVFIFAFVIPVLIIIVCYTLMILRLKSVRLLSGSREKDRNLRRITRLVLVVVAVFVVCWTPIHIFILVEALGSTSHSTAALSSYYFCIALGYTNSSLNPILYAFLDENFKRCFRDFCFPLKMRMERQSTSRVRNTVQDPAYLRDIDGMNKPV
Details: not given
For `O=C(NC1CCCCC1)[C@@H]1CC=C[C@@H]2CCN(Cc3ccccc3)C(=O)[C@@H]21` [compound 11791], the inhibition constant Ki was 1.3 µM.

The same test, now with this note: Opioid secondary binding activity for Formula 10 analogs; read-out: KOR, Ki.
With `O=C(OCc1ccccc1)C1CCCN1C(=O)C1CC=CC2CCN(Cc3ccc(Cl)cc3)C(=O)C21` (mixture of isomers) [compound 11808], the Ki was 2.29 µM.
Still for that read-out and setting: then `COC(=O)C(CCSC)NC(=O)C1CC=CC2CCN(Cc3ccccc3)C(=O)C21` (mixture of isomers) [compound 11816], with 2.63 µM; and `COC(=O)C(C)NC(=O)C1CC=CC2CCN(Cc3ccccc3)C(=O)C21` (mixture of isomers) [compound 11818], with 6.17 µM; and `O=C(OCc1ccccc1)C(Cc1ccccc1)NC(=O)C1CC=CC2CCN(Cc3ccccc3)C(=O)C21` (mixture of isomers) [compound 11819], with 1.29 µM.
On to `CCOC(=O)CCC(NC(=O)C1CC=CC2CCN(C3CCCCC3)C(=O)C21)C(=O)OCC` (mixture of isomers) [compound 11821], for which the Ki worked out at 4.71 µM.
Turning to `COC(=O)C(CCSC)NC(=O)C1CC=CC2CCN(C3CCCCC3)C(=O)C21` (mixture of isomers) [compound 11822], the Ki was found to be 4.5 µM.
As to `O=C(OCc1ccccc1)C(Cc1ccccc1)NC(=O)C1CC=CC2CCN(C3CCCCC3)C(=O)C21` (mixture of isomers) [compound 11825], the Ki was 1.11 µM.
Same read-out and setting: the result for `O=C(OCc1ccccc1)C(Cc1ccccc1)NC(=O)C1CC=CC2CCN(CCc3ccccc3)C(=O)C21` (mixture of isomers) [compound 11831] reads 1.53 µM; that for `CC(NC(=O)C1CC=CC2CCN(C3CCCCC3)C(=O)C21)c1ccccc1` (mixture of isomers) [compound 11836], 0.599 µM; that for `CC(NC(=O)C1CC=CC2CCN(CCc3ccccc3)C(=O)C21)c1ccccc1` (mixture of isomers) [compound 11848], 3.49 µM.
For the compound `CC(NC(=O)C1CC=CC2CCN(Cc3ccccc3)C(=O)C21)c1ccccc1` (mixture of isomers) [compound 11854], the Ki amounted to 0.712 µM.
On the same count and under the same terms, then `O=C(O)C(Cc1ccccc1)NC(=O)C1CC=CC2CCN(Cc3ccccc3)C(=O)C21` (mixture of isomers) [compound 11902], with 3.38 µM; and `O=C(Nc1cccc(Cl)c1)[C@@H]1CC=C[C@@H]2CCN(c3ccccc3)C(=O)[C@@H]21` (racemic) [compound 10821], with 0.42 µM; and `O=C(Nc1ccc(C(F)(F)F)cc1)[C@@H]1CC=C[C@@H]2CCN(c3ccccc3)C(=O)[C@@H]21` (racemic) [compound 10822], with 0.786 µM.
Turning to `O=C(Nc1ccc(F)c(F)c1)[C@@H]1CC=C[C@@H]2CCN(c3ccccc3)C(=O)[C@@H]21` (racemic) [compound 10823], the Ki was 0.375 µM.
For `O=C(Nc1c(F)cccc1F)[C@@H]1CC=C[C@@H]2CCN(c3ccccc3)C(=O)[C@@H]21` (racemic) [compound 10824], the Ki worked out at 5 µM.
Consider `O=C(Nc1ccc(Cl)cc1Cl)[C@@H]1CC=C[C@@H]2CCN(c3ccccc3)C(=O)[C@@H]21` (racemic) [compound 10826], for which the inhibition constant Ki turned out to be 0.287 µM.
Same read-out and setting: the result for `O=C(Nc1ccc(Cl)cc1Cl)[C@@H]1CC=C[C@@H]2CCN(CCc3ccccc3)C(=O)[C@@H]21` (racemic) [compound 10834] reads 6.49 µM; that for `COc1ccc(NC(=O)[C@@H]2CC=C[C@@H]3CCN(Cc4ccc(Cl)cc4)C(=O)[C@@H]32)cc1` (racemic) [compound 10835], 5.07 µM; that for `O=C(Nc1cccc(Cl)c1)[C@@H]1CC=C[C@@H]2CCN(Cc3ccc(Cl)cc3)C(=O)[C@@H]21` (racemic) [compound 10836], 0.225 µM.
The same measure, in the same setting: the result for `O=C(Nc1ccc(C(F)(F)F)cc1)C1CC=CC2CCN(Cc3ccc(Cl)cc3)C(=O)C21` (racemic) [compound 10837] reads 2.53 µM.
Consider `O=C(Nc1cccc(C(F)(F)F)c1)C1CC=CC2CCN(Cc3ccc(Cl)cc3)C(=O)C21` (racemic) [compound 10838], for which the Ki is 1.51 µM.
Still for that read-out and setting: then `O=C(Nc1ccc(F)c(F)c1)C1CC=CC2CCN(Cc3ccc(Cl)cc3)C(=O)C21` (racemic) [compound 10839], with 0.652 µM.
For the compound `O=C(Nc1ccc(Cl)c(C(F)(F)F)c1)C1CC=CC2CCN(Cc3ccc(Cl)cc3)C(=O)C21` (racemic) [compound 10841], the Ki is 0.465 µM.
The same measure, in the same setting: then `CC(C)N1CCC2C=CCC(C(=O)Nc3cccc(Cl)c3)C2C1=O` (racemic) [compound 10844], with 2.13 µM; and `CC(C)N1CCC2C=CCC(C(=O)Nc3cccc(C(F)(F)F)c3)C2C1=O` (racemic) [compound 10846], with 0.621 µM.
As for `CC(C)N1CCC2C=CCC(C(=O)Nc3ccc(F)c(F)c3)C2C1=O` (racemic) [compound 10847], the Ki is 4.2 µM.
`CC(C)N1CCC2C=CCC(C(=O)Nc3ccc(Cl)c(C(F)(F)F)c3)C2C1=O` (racemic) [compound 10849]: the inhibitory constant (Ki) worked out at 0.261 µM.
Still for that read-out and setting: then `CC(C)N1CCC2C=CCC(C(=O)Nc3ccc(Cl)cc3Cl)C2C1=O` (racemic) [compound 10850], with 2.41 µM; and `O=C(Nc1ccc(Cl)c(C(F)(F)F)c1)C1CCCC2CCN(C3CCCCC3)C(=O)C21` (racemic) [compound 11479], with 0.792 µM; and `O=C(NCc1ccc(Cl)c(C(F)(F)F)c1)[C@@H]1CC=C[C@@H]2CCN(C3CCCCC3)C(=O)[C@@H]21` (racemic) [compound 11856], with 0.531 µM.
With `O=C(Nc1ccc(Br)c(C(F)(F)F)c1)[C@@H]1CC=C[C@@H]2CCN(C3CCCCC3)C(=O)[C@@H]21` (racemic) [compound 11857], the Ki amounted to 0.814 µM.
Same read-out and setting: the result for `O=C(Nc1ccc(Cl)cc1C(F)(F)F)[C@@H]1CC=C[C@@H]2CCN(C3CCCCC3)C(=O)[C@@H]21` (racemic) [compound 11858] reads 0.866 µM.
Still for that read-out and setting: then `Cc1cc(NC(=O)[C@@H]2CC=C[C@@H]3CCN(C4CCCCC4)C(=O)[C@@H]32)ccc1Cl` (racemic) [compound 11860], with 0.716 µM.
`O=C(Nc1ccc(C(F)(F)F)cc1Cl)[C@@H]1CC=C[C@@H]2CCN(c3ccccc3)C(=O)[C@@H]21` (racemic) [compound 11865]: the Ki was determined as 0.18 µM.
As for `O=C(Nc1ccc(C(F)(F)F)cc1Cl)[C@@H]1CC=C[C@@H]2CCN(CCc3ccccc3)C(=O)[C@@H]21` (racemic) [compound 11877], the inhibitory constant (Ki) stood at 3.3 µM.
The same measure, in the same setting: the result for `O=C(NC1CCCCC1)[C@@H]1CC=C[C@@H]2CCN(CC3CCCCC3)C(=O)[C@@H]21` (racemic) [compound 11886] reads 0.177 µM; that for `O=C(Nc1ccccc1)[C@@H]1CC=C[C@@H]2CCN(CC3CCCCC3)C(=O)[C@@H]21` (racemic) [compound 11887], 0.187 µM; that for `O=C(Nc1ccc(F)c(F)c1)[C@@H]1CC=C[C@@H]2CCN(CC3CCCCC3)C(=O)[C@@H]21` (racemic) [compound 11889], 0.131 µM.
For the compound `O=C(Nc1ccc(Cl)c(C(F)(F)F)c1)[C@@H]1CC=C[C@@H]2CCN(CC3CCCCC3)C(=O)[C@@H]21` (racemic) [compound 11890], the Ki was 0.84 µM.
The same measure, in the same setting: the result for `O=C1NCC[C@H]2C=CC[C@@H](C(=O)Nc3ccc(Cl)c(C(F)(F)F)c3)[C@@H]12` (racemic) [compound 11896] reads 0.729 µM; that for `O=C(Nc1ccc(F)cc1)[C@@H]1CC=C[C@@H]2CCN(Cc3ccccc3)C(=O)[C@@H]21` (racemic) [compound 11909], 0.276 µM; that for `O=C(NCc1ccccc1)[C@@H]1CC=C[C@@H]2CCN(C3CCCCC3)C(=O)[C@@H]21` (racemic) [compound 11918], 0.358 µM.
The same measure, in the same setting: the result for `Cc1ccc(NC(=O)[C@@H]2CC=C[C@@H]3CCN(C4CCCCC4)C(=O)[C@@H]32)cc1Cl` (racemic) [compound 11919] reads 0.102 µM; that for `O=C(Nc1ccc([N+](=O)[O-])c(C(F)(F)F)c1)[C@@H]1CC=C[C@@H]2CCN(C3CCCCC3)C(=O)[C@@H]21` (racemic) [compound 11920], 5.11 µM.
Turning to `COc1cccc(F)c1CN1CC[C@H]2C=CC[C@@H](C(=O)Nc3ccc(C)c(F)c3F)[C@H]2C1=O` (racemic) [compound 13485], the Ki worked out at 5.12 µM.
With `O=C(Nc1c(F)c(F)c(F)c(F)c1F)[C@@H]1CC=C[C@@H]2CCN(Cc3ccccc3)C(=O)[C@@H]21` (racemic) [compound 14309], the Ki is 2.97 µM.
As for `O=C(Nc1ccccc1)[C@@H]1CC=C[C@@H]2CCN(Cc3ccccc3)C(=O)[C@@H]21` [compound 11793], the inhibitory constant (Ki) was 1.61 µM.

A further test concerns the target DOR (Homo sapiens, UniProt P41143). Briefly: Opioid secondary binding, DOR (Table 4). Conditions: Opioid secondary binding activity for Formula 10 analogs.
`CC(c1ccccc1)N1CCC2C=CCC(C(=O)Nc3cccc(Cl)c3)C2C1=O` (mixture of isomers) [compound 12165] gave a Ki of 1.21 µM.
In turn, `CC(c1ccccc1)N1CCC2C=CCC(C(=O)Nc3ccc(F)c(F)c3)C2C1=O` (mixture of isomers) [compound 12166] showed a Ki of 3.2 µM.
Regarding `CC(c1ccccc1)N1CCC2C=CCC(C(=O)Nc3nccs3)C2C1=O` (mixture of isomers) [compound 12168], the affinity, expressed as Ki, was 1.45 µM.
Still for that read-out and setting: then `O=C(Nc1cccnc1)[C@@H]1CC=C[C@@H]2CCN(C3CCCCC3)C(=O)[C@@H]21` (racemic) [compound 11921], with 0.836 µM; and `Cc1ccc(NC(=O)[C@@H]2CC=C[C@@H]3CCN(c4ccccc4)C(=O)[C@@H]32)cc1Cl` (racemic) [compound 11925], with 0.015 µM.
The same measure, in the same setting: the result for `O=C(Nc1ccc([N+](=O)[O-])c(C(F)(F)F)c1)[C@@H]1CC=C[C@@H]2CCN(c3ccccc3)C(=O)[C@@H]21` (racemic) [compound 11926] reads 0.035 µM; that for `O=C(Nc1cccnc1)[C@@H]1CC=C[C@@H]2CCN(c3ccccc3)C(=O)[C@@H]21` (racemic) [compound 11927], 2.1 µM; that for `O=C(NCc1ccccc1)[C@@H]1CC=C[C@@H]2CCN(Cc3ccccc3)C(=O)[C@@H]21` (racemic) [compound 11930], 0.739 µM.
The compound `O=C(Nc1cccnc1)[C@@H]1CC=C[C@@H]2CCN(Cc3ccccc3)C(=O)[C@@H]21` (racemic) [compound 11933] had an inhibition constant Ki of 3.53 µM.
Same read-out and setting: the result for `O=C(NC12CC3CC(CC(C3)C1)C2)[C@@H]1CC=C[C@@H]2CCN(CC3CC3)C(=O)[C@@H]21` (racemic) [compound 11940] reads 0.701 µM.
